Test results published in patent US20150266908A1, “FLAME RETARDANT COMPRISING AROMATIC PHOSPHATE ESTER-BASED COMPOUND, AND METHOD FOR PREPARING SAME” (priority 2012, published 2015).

Tested on: CHO cells
Test: Test on toxicity of DPBAP: chromosomal abnormality in CHO cells
Format: cell-based
Description: A test on the toxicity of the DPBAP in accordance with the method of the present invention was performed (by the Korea Research Institute of Chemical Technology). After treating the DPBAP to CHO cells, chromosomal abnormality was measured. Consequently, the increasing of the chromosomal abnormality was not observed in all of DPBAP treatment groups regardless of application of metabolic activation system. […] However, in the CHO cells, it was known that the polyploid and endoreduplication can be generally observed due to the over-proliferation, or other causes (Scott et al., 1990).

With CCCCNP(=O)(Oc1ccccc1)Oc1ccccc1 [DPBAP, Diphenylbutylaminophosphate] the “toxicity (overall conclusion)” value (CHO cells chromosomal abnormality test) was “no toxicity were observed”, the “increasing of the chromosomal abnormality” value (CHO cells, all DPBAP treatment groups, regardless of application of metabolic activation system) was “not observed” and the cells dead (CHO cells, highest concentration of the test material) was “about 50%”. The polyploid and endoreduplication (CHO cells, highest-concentration groups, treated during 24 hours) was “minority of polyploid and endoreduplication was observed”.
